Laboratory results from patent publication US7964598B2 (The J. David Gladstone Institutes, priority 1995, dated 2011).
Entries after “also recorded” stand apart in the source; their conditions may differ.

Tests used:
[1] = test system: apoE3; test: Aβ production assay, B103-APP cells incubated with apoE3; format: cell-based, rat; conditions: FIG. 22
Protocol: (§1) Aβ production assay. Stable neuroblastoma B103 cell lines transfected with a wildtype hAPP cDNA construct (B 103-APP) were selected by growing them in Dulbecco's modified Eagle's medium (DMEM) containing 10% fetal calf serum (FBS) and 400 μg/ml G418. A cell line expressing APP at similar levels in mouse brains has been identified by RNase protection assay (RPA) and was used in the studies described below. To determine Aβ production, B103-APP cells were incubated with serum-free minimal essential medium (MEM) containing N2 supplements with or without apoE isoforms for 24 h at 37° C. After incubation, 50 μl of medium was collected and assayed for Aβ levels with an ELISA method. The cells were lysed, and cellular proteins were determined by the Lowry method. AP production was normalized to cellular protein.
(§2) Cell Culture. Rat neuroblastoma B103 cells stably expressing human wildtype APP (hAPP695wt) (Xu et al. ((1999) Proc. Natl. Acad. Sci. USA 96:7547-7552; Esposito, et al. (2004) J. Neurochem. 91:1260-1274) were generated in Dr. Lennart Mucke's laboratory at the Gladstone Institute of Neurological Disease and maintained in Dulbecco's modified Eagle's medium (DMEM) (GIBCO, Grand Island, N.Y.) containing 400 μg/ml G418, 10% fetal bovine serum, and 5% horse serum at 37° C. Twenty-four hours after plating into 48-well plates (1×10^5 cells per well), cells were washed twice with serum-free DMEM and cultured for another 24 h in DMEM containing 1% N-2 supplement (GIBCO) to induce differentiation. The cells were treated with either β-VLDL (25 μg/ml cholesterol), recombinant human apoE isoform-enriched β-VLDL (7.5 μg/ml apoE and 25 μg/ml cholesterol), or recombinant human apoE (7.5 μg/ml apoE) in fresh DMEM containing 1% N-2 supplement for an additional 24 h. In some experiments, RAP (25 nM or 1 μM) was added to the cells 1 h before apoE treatment.
(§3) Aβ Assay. Aβ secreted into the medium was detected with a sandwich enzyme-linked immunosorbent assay (ELISA), using mAb 266 as a capturing antibody and 3D6 as a detecting antibody, as described. Johnson-Wood et al. ((1997) Proc. Natl. Acad. Sci. USA 94:1550-1555). Aβ was quantified from a standard curve (Aβ42; Bachem, Torrance, Calif.) and normalized by total cellular protein.

[2] = target: T1, YFP-apoE4-CFP (Homo sapiens, UniProt P02649, C130R); test: Cell-based FRET assay, YFP-apoE4-CFP; conditions: 5-20 μM
T1 construct: vector signal peptide (pFLAG-CMV3) (N); FLAG (N); expressed in transfected cells
Excerpt: (§4) Xu et al. (2004) J. Biol. Chem. 279:25511-25516. FRET—the non-radioactive transfer of photon energy from an excited fluorophore (donor) to another fluorophore (acceptor)—occurs only when the donor and acceptor are in close proximity (<100 Å). Thus, this approach can be used to measure nanometer scale distances.
(§5) Xu et al. (2004) J. Biol. Chem. 279:25511-25516. The constructs are depicted schematically in FIG. 29.
(§6) Since the emission spectrum of CFP (460-520 nm) overlaps with the excitation spectrum of YFP (480-520 nm), FLEXstation (Molecular Devices) can be used to measure FRET in living cells expressing YFP-apoE3-CFP or YFP-apoE4-CFP in a high throughput manner. […] Thus, the ratio of FRET to CFP emission in cells expressing YFP-apoE4-CFP is much higher than that in those expressing YFP-apoE3-CFP (FIG. 31). […] Since the FLEXstation can read FRET in both cells and the culture media treated without or with various small molecules, this assay allows one to know whether a small molecule affects apoE4 domain interaction only in the medium (“medium FRET”) or also inside the cell (“intracellular FRET”). In addition, after measurement of the intracellular FRET, the cells can be incubated further with MTT to determine the cytotoxicity of the compound. Thus, the cell-based FRET assay can simultaneously provide three sets of data-intracellular FRET, medium FRET, and cytotoxicity.
(§7) Quantifying FRET in Transfected Neuro-2a Cells—Stably transfected Neuro-2a cells expressing YFP-apoE3-CFP or YFP-apoE4-CFP at similar levels were selected by fluorescence activated cell sorter (FACS). YFP and CFP images of transfected cells were acquired with the Meta Detector, and their fluorescence intensities were analyzed with the mounted computer. The FRET signal was calculated as the ratio of YFP to CFP fluorescence intensity under CFP excitation. For each YFP-apoE-CFP construct, the FRET signal was measured in at least 12 cells from different fields.
(§8) Quantifying FRET in the Culture Medium—Neuro-2a cells stably expressing YFP-apoE3-CFP or YFP-apoE4-CFP and wildtype cells were grown in T175 flasks to 90% confluence and incubated with serum-free minimum essential medium containing N2 supplement for 24 h. The conditioned medium (20 ml/flask) was concentrated about 20-fold with Centriplus-YM-10 concentrators (Amicon, Bedford, Mass.), dialyzed against PBS, illuminated at the CFP excitation wavelength (430 nm), and scanned for emission spectrum. The FRET signal was calculated as the ratio of emission at 525 nm (YFP) to that at 475 nm (CFP). Conditioned medium from cells expressing apoE3-CFP or apoE4-CFP was used to determine baseline fluorescence in the absence of FRET.

[3] = test system: B103 cells; test: Toxicity to B103 cells; format: cell-based, rat; conditions: at the micromole level
[4] = test system: Neuro-2a cells; test: Aβ-induced lysosomal leakage (cytosolic β-hexosaminidase); format: cell-based, mouse
Protocol: The cytosolic fraction was obtained by ultracentrifugation, and the cytosolic β-hexosaminidase activity was measured.
Quantitation of the lysosomal enzyme β-hexosaminidase activity in the cytosol indicates lysosomal leakage. […] After incubation the cells were washed and cytosolic fractions were isolated as described in Materials and Methods. The enzymatic activity of β-hexosaminidase was assayed in 20 μg of cytosolic protein for each sample.
Lysosomal leakage was quantitated by assaying cytosolic 0-hexosaminidase activity. […] Conditioned media were prepared as described above. Apoptosis was quantitated by measuring DNA fragmentation.

[5] = target: T2, YFP-apoE3-CFP (Homo sapiens, UniProt P02649); test: Cell-based FRET assay, YFP-apoE3-CFP
T2 construct: vector signal peptide (pFLAG-CMV3) (N); FLAG (N); expressed in transfected cells
Excerpt: as §4, §5, §6, §7, §8

[6] = test system: apoE4 enhancement of Aβ production; test: Aβ production assay, B103-APP cells incubated with apoE4; format: cell-based, rat
Protocol: as §1, §2, §3

T1 sequence (P02649 19-317 C130R): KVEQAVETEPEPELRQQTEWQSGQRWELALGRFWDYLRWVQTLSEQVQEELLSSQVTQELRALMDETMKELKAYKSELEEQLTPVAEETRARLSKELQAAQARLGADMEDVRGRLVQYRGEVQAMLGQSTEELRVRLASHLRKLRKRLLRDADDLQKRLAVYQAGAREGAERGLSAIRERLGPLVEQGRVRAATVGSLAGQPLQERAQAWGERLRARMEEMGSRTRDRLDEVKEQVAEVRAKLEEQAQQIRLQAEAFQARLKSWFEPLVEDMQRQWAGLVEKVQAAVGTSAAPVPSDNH
T2 sequence (P02649 19-317): as the sequence (P02649 19-317 C130R) above, with R112C counted along it

O=S(=O)([O-])c1ccc2c(c1)c(Nc1ccc(S(=O)(=O)O)cc1)cc1c2nc2ccccc2[n+]1-c1ccccc1 [GIND-25, azocarmine-G]
effect on apoE3 (Aβ production) [1]: no effect | ratio of FRET to CFP emission in the cells expressing YFP-apoE4-CFP ([2]; intracellular): decreased significantly | ratio of FRET to CFP emission in media of YFP-apoE4-CFP cells ([2]; medium): decreased significantly | toxicity to B103 cells [3]: no significant toxicity | lysosomal leakage, cells with medium alone or medium containing apoE3 plus Aβ1-42 [4]: no significant effect | apoE4 potentiation of Aβ-induced lysosomal leakage ([4]; 5 μM, apoE4 conditioned medium, Aβ1-42 20 μM): block; also recorded: abolish | ratio of FRET to CFP emission in cells expressing YFP-apoE3-CFP ([5]; intracellular): none of these compounds altered significantly | ratio of FRET to CFP emission in media of YFP-apoE3-CFP cells ([5]; medium): none of these compounds altered significantly | apoE4 enhancement of Aβ production ([6]; FIG. 22): abolished completely | enhancement of Aβ production by apoE4 ([6]; compound 5 μM preincubated with apoE 7.5 μg/ml 30 min, then 24 h with cells, FIG. 27D): abolish; also recorded: decreased Aβ production induced by apoE4 to levels similar to those induced by apoE3
